Reference: ChEMBL document CHEMBL1140977, “Synthesis and screening of a cyclic peptide library: discovery of small-molecule ligands against human prolactin receptor” (Bioorg Med Chem, 2009)
The source made the active and inactive calls. The rule behind the calls is not given here. Square brackets hold non-standard residues; d marks the D form. Peptide text beside a SMILES is read from it. NMeL = CN[C@@H](CC(C)C)C(=O)O

Experiments:
Prolactin receptor = biological target: T1, Prolactin receptor (Homo sapiens, UniProt P16471); assay: (§1) Binding affinity to human prolactin receptor extracellular binding domain by surface plasmon […]
T1 sequence (P16471 whole entry): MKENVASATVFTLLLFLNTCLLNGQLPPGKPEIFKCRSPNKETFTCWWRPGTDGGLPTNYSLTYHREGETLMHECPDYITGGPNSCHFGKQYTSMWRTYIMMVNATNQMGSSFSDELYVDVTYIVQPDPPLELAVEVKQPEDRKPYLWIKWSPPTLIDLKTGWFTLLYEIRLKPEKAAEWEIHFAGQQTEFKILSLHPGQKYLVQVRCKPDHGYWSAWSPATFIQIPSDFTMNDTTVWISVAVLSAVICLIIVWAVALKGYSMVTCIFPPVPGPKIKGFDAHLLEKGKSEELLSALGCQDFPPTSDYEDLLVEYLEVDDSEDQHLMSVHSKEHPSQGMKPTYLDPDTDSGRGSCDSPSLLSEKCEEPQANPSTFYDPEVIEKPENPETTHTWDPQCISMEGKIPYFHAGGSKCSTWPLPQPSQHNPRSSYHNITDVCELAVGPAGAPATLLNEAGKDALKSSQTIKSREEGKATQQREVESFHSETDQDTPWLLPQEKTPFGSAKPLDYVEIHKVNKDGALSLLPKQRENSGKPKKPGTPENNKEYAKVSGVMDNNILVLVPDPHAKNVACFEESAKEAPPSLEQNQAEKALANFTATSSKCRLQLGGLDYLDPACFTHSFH

[1] = biological target: T2, Prolactin receptor (Homo sapiens) (UniProt P16471); assay: as §1
T2 sequence (whole entry): T1 sequence (P16471 whole entry)

Row | Kd (Prolactin receptor) | Activity [1] | Compound
1 | 2 µM | – | CC(C)[C@@H]1NC(=O)[C@H](CCCNC(=N)N)NC(=O)[C@H](CO)NC(=O)[C@H](CCC(N)=O)NC(=O)[C@H](Cc2ccc(O)cc2)NC(=O)[C@H](CCCNC(=N)N)NC(=O)[C@H](C)NC(=O)[C@H](CCC(=O)O)NC1=O (cyclo(ARYQSRVE))
2 | 3 µM | – | CC(C)C[C@H]1NC(=O)[C@@H](C)NC(=O)[C@H](CCC(=O)O)NC(=O)[C@H](C(C)C)NC(=O)[C@H](CCCNC(=N)N)NC(=O)[C@H](Cc2ccc(O)cc2)NC(=O)[C@H](CO)NC(=O)[C@H](Cc2ccc(O)cc2)NC1=O
3 | – | inactive | CC(C)C[C@H]1C(=O)N[C@@H](CCC(N)=O)C(=O)N[C@@H](CCCNC(=N)N)C(=O)N[C@@H](Cc2ccccc2)C(=O)N[C@@H](C(C)C)C(=O)N[C@@H](CCC(=O)O)C(=O)N[C@@H](C)C(=O)NCC(=O)N1C (cyclo(AG[NMeL]QRFVE))
